The assay has as its system cell migration induced by MCP-1 in human promonocytic leukemia cell line, THP-1. The assay is described as follows: Activity for inhibiting cell migration induced by MCP-1 (THP-1 cells). The class given is cell-based. The settings on record: 20 ng/ml recombinant human MCP-1, 37° C., two hours. How it is done: The cell migration induced by the monocyte chemoattractant protein MCP-1/MCAF was measured for the purpose of investigating the activity of the tested compounds shown in Table 1 in inhibiting cell migration by the following manner in accordance with the method of Falk et al. (J. Immunol. Methods, 33, 239-247 (1980)) using human promonocytic leukemia cell line, THP-1 (ATCC TIB203). That is, THP-1 cells diluted to 2×10^6 /ml by 10% fetal calf serum: FCS-containing RPMI-1640 medium (made by Flow Laboratories) were added to the upper chamber (200 μl) of the 96-well microchemotaxis chamber (made by Neuroprobe Inc.) while recombinant human MCP-1 (made by Peprotech Co.) diluted by the same medium to a final concentration of 20 ng/ml was added to the bottom chamber (35 μl). A polycarbonate filter (pore size of 5 μm, PVP-free, made by Neuroprobe Co) was affixed between the two. Incubation was performed at 37° C. in the presence of 5% CO2 for two hours. The filter was taken out, then the cells migrating to the bottom surface of the filter were fixed and stained by a Diff Quick solution (made by International Reagents Co.), then were measured by a plate reader (made by Molecular Device Co.) at a measurement wavelength of 550 nm. The mean value of three wells was determined and used as the indicator of the number of the migrating cells. At this time, the text compounds were added at various concentrations along with the THP-1 cells to the top chambers and the activity in inhibiting cell migration was determined. The percent of inhibition of cell migration was found by dividing the {(number of migrating cells caused by the MCP-1 added to the bottom chamber in the case of the test compound being added to the top chamber)--(number of migrating cells in the case of no test compound being added to the top chamber and no MCP-1 being added to the bottom chamber)} by the {(number of migrating cells caused by the MCP-1 added to the bottom chamber in the case of no test compound being added to the top chamber)--(number of migrating cells in the case of no test compound being added to the top chamber and no MCP-1 being added to the bottom chamber)}.

A value given as a limit tells only on which side of the number the result lay.

For the molecule `CCCC(=O)OC1=C(SCCCCCC(=O)OC)[C@@H](/C=C/C(O)C(C)c2ccccc2)[C@H](O)C1` (some centres unmarked) [drawing 139], the IC50 came out at 6 nM. Turning to `CCCC(=O)OC1=C(SCCCCCC(=O)OC)[C@@H](/C=C/C(O)Cc2ccc(C)cc2)[C@H](O)C1` (some centres unmarked) [drawing 149], the IC50 came out at 100 nM. Take `CCCC(=O)OC1=C(SCCCCCC(=O)OC)[C@@H](/C=C/C(O)Cc2ccc([N+](=O)[O-])cc2)[C@H](O)C1` (some centres unmarked) [drawing 164]: the IC50 worked out at 3.6 nM. For `CCCC(=O)OC1=C(SCCCCCC(=O)OC)[C@@H](/C=C/C(O)Cc2ccccc2C)[C@H](O)C1` (some centres unmarked) [drawing 162], the IC50 stood at 4.4 nM. On to `CCCCC[C@H](O)/C=C/[C@@H]1C(SCCCCCC(=O)O)=C(OC(=O)CCC)C[C@H]1O` [drawing 126], for which the IC50 (Homo sapiens, THP-1, 2 h) came to 0.81 nM. On to `CCCC(=O)OC1=C(SCCCCCC(=O)OC)[C@@H](/C=C/C(O)Cc2cccc(OC)c2)[C@H](O)C1` (some centres unmarked) [drawing 158], for which the concentration for half-maximal inhibition (IC50) stood at 2.3 nM. Turning to `CCCC(=O)OC1=C(SCCCCCC(=O)OC)[C@@H](/C=C/C(O)Cc2ccsc2)[C@H](O)C1` (some centres unmarked) [drawing 151], the IC50 came out at 90 nM. As for `CCCC(=O)OC1=C(SCCCCCC(=O)OC)[C@@H](/C=C/C(O)Cc2ccc(Cl)cc2)[C@H](O)C1` (some centres unmarked) [drawing 165], the IC50 is less than 100 nM. The same measure, in the same setting: then `CCCC(=O)OC1=C(CCCCCCC(=O)OC)[C@@H](/C=C/C(O)Cc2ccccc2)[C@H](O)C1` (some centres unmarked) [drawing 168], with 5 nM; and `CCCC(=O)OC1=C(SCCCCCC(=O)OC)[C@@H](/C=C/C(O)CCCc2ccccc2)[C@H](O)C1` (some centres unmarked) [drawing 147], with 4.3 nM. Turning to `CCCC(=O)OC1=C(SCCCCCC(=O)OC)[C@@H](/C=C/C(O)Cc2ccc(C)cc2)[C@H](O)C1` (some centres unmarked) [drawing 148], the IC50 is more than 10000 nM.

As to `CCCC(=O)OC1=C(SCCCCCC(=O)OC)[C@@H](/C=C/C(O)c2ccccc2)[C@H](O)C1` (some centres unmarked), the IC50 (Homo sapiens, THP-1, 2 h) is more than 1000 nM. For `CCCC(=O)OC1=C(SCCCCCC(=O)OC)[C@@H](/C=C/C(O)Cc2ccsc2)[C@H](O)C1` (some centres unmarked) [drawing 152], the IC50 stood at 0.08 nM. The same measure, in the same setting: then `CCCC(=O)OC1=C(SCCCCCC(=O)OC)[C@@H](/C=C/C(O)C(c2ccccc2)c2ccccc2)[C@H](O)C1` (some centres unmarked) [drawing 142], with 1300 nM; and `CCCC(=O)OC1=C(SCCCCCC(=O)OC)[C@@H](/C=C/C(O)Cc2cccc(C(=O)OC)c2)[C@H](O)C1` (some centres unmarked) [drawing 160], with 2.3 nM.

In the case of `CCCC(=O)OC1=C(SCCCCCC(=O)OC)[C@@H](/C=C/[C@@H](O)Cc2ccccc2)[C@H](O)C1`, the IC50 (Homo sapiens, THP-1, 2 h) turned out to be 1.1 nM. Consider `CCCC(=O)OC1=C(SCCCCCC(=O)OC)[C@@H](/C=C/C(O)Cc2cccc(Cl)c2)[C@H](O)C1` (some centres unmarked) [drawing 156], for which the IC50 was 0.4 nM. Turning to `CCCC(=O)OC1=C(SCCCCCC(=O)OC)[C@@H](/C=C/C(O)CCCc2ccccc2)[C@H](O)C1` (some centres unmarked) [drawing 146], the half-maximal inhibitory concentration (IC50) is 300 nM. Consider `CCCC(=O)OC1=C(SCCCCCC(=O)OC)[C@@H](/C=C/[C@@H](O)C2CCCC2)[C@H](O)C1` [drawing 121], for which the IC50 (Homo sapiens, THP-1, 2 h) came to 0.51 nM.

For `CCCC(=O)OC1=C(SCCCCCC(=O)OC)[C@@H](/C=C/C(O)C(C)(C)c2ccccc2)[C@H](O)C1` (some centres unmarked) [drawing 136], the IC50 came out at 13 nM. Turning to `CCCC(=O)OC1=C(CCCCCCC(=O)OC)[C@@H](/C=C/C(O)Cc2ccccc2)[C@H](O)C1` (some centres unmarked) [drawing 167], the IC50 was 4000 nM. For `CCCC(=O)OC1=C(SCCCCCC(=O)OC)[C@@H](/C=C/C(O)Cc2cccc(C)c2)[C@H](O)C1` (some centres unmarked) [drawing 153], the IC50 stood at 600 nM. For `CCCC(=O)OC1=C(SCCCCCC(=O)OC)[C@@H](/C=C/C(O)C(c2ccccc2)c2ccccc2)[C@H](O)C1` (some centres unmarked) [drawing 143], the IC50 is more than 5000 nM. On to `CCCC(=O)OC1=C(SCCCCCC(=O)OC)[C@@H](/C=C/C(O)Cc2cccc(Cl)c2)[C@H](O)C1` (some centres unmarked) [drawing 155], for which the IC50 turned out to be 8 nM. As for `CCCC(=O)OC1=C(SCCCCCC(=O)OC)[C@@H](/C=C/C(O)C2CCCCC2)[C@H](O)C1` (some centres unmarked), the IC50 (Homo sapiens, THP-1, 2 h) was 100 nM. For the molecule `CCCC(=O)OC1=C(SCCCCCC(=O)OC)[C@@H](/C=C/C(O)C(C)c2ccccc2)[C@H](O)C1` (some centres unmarked) [drawing 140], the IC50 amounted to 0.021 nM. In the case of `CCCCCC(O)CC[C@@H]1C(SCCCCCC(=O)OC)=C(OC(=O)CCC)C[C@H]1O` (some centres unmarked), the IC50 (Homo sapiens, THP-1, 2 h) amounted to 0.14 nM. Turning to `CCCC(=O)OC1=C(SCCCCCC(=O)OC)[C@@H](/C=C/C(O)Cc2ccccc2C)[C@H](O)C1` (some centres unmarked) [drawing 161], the IC50 was 190 nM.

Regarding `CCCC(=O)OC1=C(SCCCCCC(=O)OC)[C@@H](/C=C/C(O)Cc2cccc(OC)c2)[C@H](O)C1` (some centres unmarked) [drawing 157], the IC50 is 33 nM. Still for that read-out and setting: then `CCCC(=O)OC1=C(SCCCCCC(=O)OC)[C@@H](/C=C/C(O)C(C)(C)c2ccccc2)[C@H](O)C1` (some centres unmarked) [drawing 135], with 100 nM; and `CCCC(=O)OC1=C(SCCCCCC(=O)OC)[C@@H](/C=C/C(O)Cc2cccc(C(=O)OC)c2)[C@H](O)C1` (some centres unmarked) [drawing 159], with 230 nM. Consider `CCCCC(C)C[C@H](O)/C=C/[C@@H]1C(SCCCCCC(=O)OC)=C(OC(=O)c2ccccc2)C[C@H]1O` (some centres unmarked) [drawing 129], for which the IC50 (Homo sapiens, THP-1, 2 h) stood at 810 nM. On to `CCCC(=O)OC1=C(SCCCCCC(=O)OC)[C@@H](/C=C/[C@@H](O)CCOCC)[C@H](O)C1`, for which the half-maximal inhibitory concentration (IC50) (Homo sapiens, THP-1, 2 h) came out at 120 nM. Consider `CCCCC(C)C[C@H](O)/C=C/[C@@H]1C(SCCC/C=C/C(=O)OC)=C(OC(=O)CCC)C[C@H]1O` (some centres unmarked), for which, where the note is “Homo sapiens, THP-1, 2 h”, the IC50 came out at 6 nM.

As to `CCCC(=O)OC1=C(SCCCCCC(=O)OC)[C@@H](/C=C/C(O)Cc2ccc([N+](=O)[O-])cc2)[C@H](O)C1` (some centres unmarked) [drawing 163], the IC50 was less than 100 nM. With `CCCCC[C@H](O)/C=C/[C@@H]1C(SCCCCCC(=O)OC)=C(OC(=O)[C@H](Cc2ccccc2)NC(=O)OCc2ccccc2)C[C@H]1O`, the IC50 (Homo sapiens, THP-1, 2 h) was determined as 0.22 nM.

With `CCCC(=O)OC1=C(SCCCCCC(=O)OC)[C@@H](/C=C/C(O)CCc2ccccc2)[C@H](O)C1` (some centres unmarked), the IC50 (Homo sapiens, THP-1, 2 h) is 8.5 nM. For `CCCC(=O)OC1=C(SCCCCCC(=O)OC)[C@@H](/C=C/C(O)Cc2ccccc2)[C@H](O)C1` (some centres unmarked) [drawing 131], the IC50 (Homo sapiens, THP-1, 2 h) was 8.3 nM.

`CCCC(=O)OC1=C(SCCCCCC(=O)OC)[C@@H](/C=C/C(O)[C@H](C)c2ccccc2)[C@H](O)C1` (some centres unmarked) [drawing 137]: for the setting “Homo sapiens, THP-1, 2 h”, the IC50 is 3 nM. Still for that read-out and setting: then `CCCC(=O)OC1=C(SCCCCCC(=O)OC)[C@@H](/C=C/[C@@H](O)C2CCCCC2)[C@H](O)C1` [drawing 123], with 2.5 nM. As to `CCCC(=O)OC1=C(SCCCCCC(=O)OC)[C@@H](/C=C/C(O)Cc2cccc(C)c2)[C@H](O)C1` (some centres unmarked) [drawing 154], the IC50 was found to be 1.2 nM. `CCCCC(C)(O)C/C=C/[C@@H]1C(SCCCCCC(=O)OC)=C(OC(=O)CCC)C[C@H]1O` (some centres unmarked): for the setting “Homo sapiens, THP-1, 2 h”, the IC50 was 1.7 nM. For the molecule `CCCC(=O)OC1=C(SCCCCCC(=O)OC)[C@@H](/C=C/C(O)Cc2ccc(Cl)cc2)[C@H](O)C1` (some centres unmarked) [drawing 166], the IC50 is less than 1 nM. Regarding `CCCCC(C)C[C@H](O)/C=C/[C@@H]1C(SCCCOCC(=O)OC)=C(OC(=O)CCC)C[C@H]1O` (some centres unmarked) [drawing 141], under “Homo sapiens, THP-1, 2 h”, the IC50 amounted to 2.1 nM.

Usually IC50 stands for the concentration needed to halve the response being measured.

Source of the values: patent publication US5731452A, “7-thiaprostaglandins and method of production thereof” (Teijin Limited, priority 1994, dated 1998).
